Laboratory results: patent US20200038513A1, “MODULATORS OF FAK PROTEOLYSIS AND ASSOCIATED METHODS OF USE” (ARVINAS OPERATIONS, INC., priority 2018, published 2020)
Read-outs that look alike come from different tables or passages of the source.

Experiments:
PPB = format: in vitro ADME; conditions: plasma
p-paxillin = test: Fak downstream signaling, western blot in PC3 cells; format: cell-based, human; conditions: serum deprived PC3 cells, 24 h, above 50 nM
Procedure: (§1) If not indicated otherwise, cells were seeded and grown to 80% confluency and were treated with compound or control for 24 hours. Subsequently, the growth media was removed and the cells lysed by the addition of lysis buffer (25 mM Tris, pH 7.4; 1% NP-40, 0.25% deoxycholate, 1 mM sodium vanadate, 10 mM sodium fluoride, 10 mM sodium pyrophosphate, 20 mM β-glycerophosphate and 1× complete EDTA-free protease inhibitor cocktail (Roche)). After 20 minutes the mixture was spun down at 16,000×g for 10 minutes at 4° C. to pellet insoluble materials. Protein concentration of supernatants were determined via BCA assay (Thermo Fisher) before addition of NuPAGE sample buffer containing 5% β-Me and boiling at 95° C. for 10 minutes. Equal amounts of protein were subjected to SDS-PAGE and subsequent electrophoretic transfer onto nitrocellulose membrane. Rabbit antibodies were purchased from Cell Signaling: Fak (3285), p-Fak (3283), p-Paxillin (2541), p-Akt (S473)(4060), GAPDH (2118), Androgen Receptor (5153), p-Src(Y527)(2105), p-S6RP (2215). Mouse antibodies were purchased from Cell Signaling: tubulin (3873), S6RP (2317). Secondary antibody ∝-rabbit (31460) or ∝-mouse (31444) was coupled to horseradish peroxidase and purchased from Thermo Fisher. Immunoblots were developed using enhanced chemiluminescence and visualized using a Bio-Rad Chemi-Doc MP Imaging System and quantitated with Image Lab v.5.2.1 software (Bio-Rad Laboratories). Data analysis and statistics was performed using Prism 7.0 (GraphPad).
(§2) Fak levels are undetectable at concentrations of 100 nM through 1 μM of exemplary compound 102, and slightly rebound at concentrations of 5 μM (10%) and 10 μM (27%) due to an observed hook effect. […] Paxillin, a downstream target of the Fak-Src complex, has been associated with cell migration. […] Akt is a kinase that is tied to the Fak signaling cascade via PI3K, but can be activated through other pathways as well. […] A maximum p-Akt suppression of 93% is observed at 1 μM of exemplary compound 102. […] A similar differential can be observed when exemplary compound 102 is compared to its non-degrading diastereomer exemplary compound 106 (FIGS. 9A-9F and 10A-10D). These differences are the result of the distinct MOA Fak degraders are able to provide compared to inhibitors.

p-Akt (S473) = test: as above; format: cell-based, human; conditions: serum deprived PC3 cells, 24 h
Procedure: as §1, §2

[1] = Pharmacokinetics of intraperitoneal or intravenous injection in CD1 mice; format: in vivo; conditions: for Conc. (ng/mL) Mouse 1 / Conc. (ng/mL) Mouse 2 / Conc. (ng/mL) Mouse 3 / concentration at 0.25 h / concentration at 0.5 h / concentration at 1 h / concentration at 2 h / concentration at 4 h / concentration at 8 h / concentration at 0.033 h / concentration at 0.083 h: CD1 mice plasma; for concentration at 0.25 h / concentration at 0.5 h / concentration at 1 h / concentration at 2 h / concentration at 4 h / concentration at 8 h / AUC(0-t) / half-life / concentration at 0.033 h / concentration at 0.083 h: male, CD1, mouse, plasma
Outline: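 Male CD1 mice, 6-8 weeks old, 3 per group, dosed IV (5 s injection; 10% HP-b-CD, 40 mM sodium acetate, 40 mM NaCl, pH 4.5) or IP (5% EtOH, 5% Solutol HS15 in D5W). Serial dorsal metatarsal vein blood, terminal heart puncture; plasma analysed by LC/MS/MS after acetonitrile precipitation, calibration 1-2000 ng/mL.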

[2] = ip, 10 mg/kg, IP 10 mg/kg, read-out: Conc. (ng/mL) Mouse 1
[3] = ip, 10 mg/kg, IP 10 mg/kg, read-out: Conc. (ng/mL) Mouse 2
[4] = ip, 10 mg/kg, IP 10 mg/kg, read-out: Conc. (ng/mL) Mouse 3
[5] = ip, 10 mg/kg, IP 10 mg/kg, read-out: Mean
[6] = iv, 1 mg/kg, IV 1.0 mg/kg, read-out: Conc. (ng/mL) Mouse 1
[7] = iv, 1 mg/kg, IV 1.0 mg/kg, read-out: Conc. (ng/mL) Mouse 2
[8] = iv, 1 mg/kg, IV 1.0 mg/kg, read-out: Conc. (ng/mL) Mouse 3
[9] = iv, 1 mg/kg, IV 1.0 mg/kg, read-out: Mean

## Cc1ncsc1-c1ccc(CNC(=O)[C@@H]2C[C@@H](O)CN2C(=O)[C@@H](NC(=O)CCOCCOc2ccc(Nc3ncc(C(F)(F)F)c(NCc4cccc(N(C)S(C)(=O)=O)c4)n3)cc2)C(C)(C)C)cc1 [Compound 102, (2S,4R)-1-((S)-3,3-dimethyl-2-(3-(2-(4-((4-((3-(N-methylmethylsulfonamido)benzyl)amino)-5-(trifluoromethyl)pyrimidin-2-yl)amino)phenoxy)ethoxy)propanamido)butanoyl)-4-hydroxy-N-(4-(4-methylthiazol-5-yl)benzyl)pyrrolidine-2-carboxamide]
PPB
  fraction unbound: 0.0066
p-paxillin
  reduction of p-paxillin levels: 85-90%
p-Akt (S473); 1 μM
  maximum p-Akt suppression: 93%
p-Akt (S473); increasing concentrations
  effect on p-Akt (S473) (in words): significant at all treatment concentrations
[1]; IP 10 mg/kg, 24 h
  Conc. (ng/mL) Mouse 1: BLOQ
  Conc. (ng/mL) Mouse 2: BLOQ
  Conc. (ng/mL) Mouse 3: BLOQ
[1]; IV 1.0 mg/kg, 4 h
  Conc. (ng/mL) Mouse 1: BLOQ
  Conc. (ng/mL) Mouse 2: BLOQ
[1]; IV 1.0 mg/kg, 8 h
  Conc. (ng/mL) Mouse 1: BLOQ
  Conc. (ng/mL) Mouse 2: BLOQ
  Conc. (ng/mL) Mouse 3: BLOQ
[1]; IV 1.0 mg/kg, 24 h
  Conc. (ng/mL) Mouse 1: BLOQ
  Conc. (ng/mL) Mouse 2: BLOQ
  Conc. (ng/mL) Mouse 3: BLOQ
[1]; [2]
  concentration at 0.25 h: 521 ng/mL
  concentration at 0.5 h: 674 ng/mL
  concentration at 1 h: 2540 ng/mL
  concentration at 2 h: 1690 ng/mL
[1]; [3]
  concentration at 0.25 h: 432 ng/mL
  concentration at 0.5 h: 546 ng/mL
  concentration at 1 h: 2130 ng/mL
  concentration at 2 h: 1070 ng/mL
[1]; [4]
  concentration at 0.25 h: 338 ng/mL
  concentration at 0.5 h: 551 ng/mL
  concentration at 1 h: 2120 ng/mL
  concentration at 2 h: 1700 ng/mL
[1]; [5]
  concentration at 0.25 h: 431 ng/mL
  concentration at 0.5 h: 591 ng/mL
  concentration at 1 h: 2260 ng/mL
  concentration at 2 h: 1490 ng/mL
[1]; ip, 10 mg/kg, IP 10 mg/kg, 4 h, read-out: Conc. (ng/mL) Mouse 1
  concentration at 4 h: 560 ng/mL
[1]; ip, 10 mg/kg, IP 10 mg/kg, 4 h, read-out: Conc. (ng/mL) Mouse 2
  concentration at 4 h: 529 ng/mL
[1]; ip, 10 mg/kg, IP 10 mg/kg, 4 h, read-out: Conc. (ng/mL) Mouse 3
  concentration at 4 h: 559 ng/mL
[1]; ip, 10 mg/kg, IP 10 mg/kg, 4 h, read-out: Mean
  concentration at 4 h: 549 ng/mL
[1]; ip, 10 mg/kg, IP 10 mg/kg, 8 h, read-out: Conc. (ng/mL) Mouse 1
  concentration at 8 h: 36.4 ng/mL
[1]; ip, 10 mg/kg, IP 10 mg/kg, 8 h, read-out: Conc. (ng/mL) Mouse 2
  concentration at 8 h: 92.3 ng/mL
[1]; ip, 10 mg/kg, IP 10 mg/kg, 8 h, read-out: Conc. (ng/mL) Mouse 3
  concentration at 8 h: 124 ng/mL
[1]; ip, 10 mg/kg, IP 10 mg/kg, 8 h, read-out: Mean
  concentration at 8 h: 84 ng/mL
[1]; ip, 10 mg/kg, read-out: AUClast (h * ng/mL) IP
  AUC(0-t): 6260 ng·h/mL
[1]; ip, 10 mg/kg, read-out: T ½ (h) IP (converted)
  half-life: 1.46 h
[1]; [6]
  concentration at 0.033 h: 1920 ng/mL
  concentration at 0.083 h: 249 ng/mL
  concentration at 0.25 h: 55.9 ng/mL
  concentration at 0.5 h: 23.7 ng/mL
  concentration at 1 h: 11.8 ng/mL
  concentration at 2 h: 6.9 ng/mL
[1]; [7]
  concentration at 0.033 h: 1820 ng/mL
  concentration at 0.083 h: 368 ng/mL
  concentration at 0.25 h: 67.4 ng/mL
  concentration at 0.5 h: 33.2 ng/mL
  concentration at 1 h: 16.7 ng/mL
  concentration at 2 h: 9.2 ng/mL
[1]; [8]
  concentration at 0.033 h: 1850 ng/mL
  concentration at 0.083 h: 333 ng/mL
  concentration at 0.25 h: 71.8 ng/mL
  concentration at 0.5 h: 37.6 ng/mL
  concentration at 1 h: 18.4 ng/mL
  concentration at 2 h: 6.75 ng/mL
[1]; [9]
  concentration at 0.033 h: 1860 ng/mL
  concentration at 0.083 h: 317 ng/mL
  concentration at 0.25 h: 65.1 ng/mL
  concentration at 0.5 h: 31.5 ng/mL
  concentration at 1 h: 15.6 ng/mL
  concentration at 2 h: 7.62 ng/mL
[1]; iv, 1 mg/kg, IV 1.0 mg/kg, 4 h, read-out: Conc. (ng/mL) Mouse 3
  concentration at 4 h: 2.09 ng/mL
[1]; iv, 1 mg/kg, read-out: AUClast (h * ng/mL) IV
  AUC(0-t): 264 ng·h/mL
[1]; iv, 1 mg/kg, read-out: T ½ (h) IV (converted)
  half-life: 0.905 h
